Laboratory results reported in publication PMC10239048, “Synthesis and antioxidant, antimicrobial, and antiviral activity of some pyrazole-based heterocycles using a 2(3H)-furanone derivative” (Journal of the Iranian Chemical Society, 2023).
Converted amounts (≈) assume the structure as drawn.

Tests used:
[1] = Total antioxidant capacity (TAC), phosphomolybdenum method; conditions: for Total antioxidant capacity: 500 µg/ml in methanol, 95 °C 90 min, 695 nm, means ± S.D., n = 3
[2] = system: avian influenza HPAI-H5N1 (AIV); parameters: species or system avian influenza virus HPAI-H5N1; conditions: in vivo
[3] = system: avian influenza HPAI-H5N1 (AIV); parameters: species or system avian influenza virus HPAI-H5N1; conditions: in vivo; remark: listed apart in the source
Haemophilus (Gram –ve) [4] = test: Agar/disk diffusion inhibition zone, Haemophilus; format: cell-based; conditions: diffusion method
Staphylococcus aureus [5] = test: Agar/disk diffusion inhibition zone, Staphylococcus aureus; format: cell-based; conditions: diffusion method
Candida albicans = test: Agar diffusion antifungal activity, Candida albicans; format: cell-based; conditions: diffusion method
Haemophilus (Gram –ve) [6] = test: MIC measurement by serial dilution, Haemophilus; format: cell-based; conditions: read-out: MIC Haemophilus (Gram –ve)
Staphylococcus aureus [7] = test: MIC measurement by serial dilution, Staphylococcus aureus; format: cell-based; conditions: 37 °C, 24–72 h, read-out: MIC Staph (Gram + ve)
SPF chicks = test: Immune-boosting properties in vaccinated SPF chicks (humeral response); format: in vivo, chicken; conditions: for Humeral response of vaccinated groups which received each tested compound separately: SPF chicks, vaccine-only group 7 log2; for Immune-boosting properties (in words): antibody titer in serum of vaccinated chicks
[8] = system: embryonated chicken SPF eggs; conditions: in vivo

SMILES | Antioxidant activity (in words) [1] | Total antioxidant capacity [1] [mg AAE/g dry compound] | TI [2] | Antiviral activity against avian influenza virus (in words) [3] | Virus titer with compound [3] | Inhibition diameter Haemophilus (Gram –ve) (Haemophilus (Gram –ve) [4]) [mm] | Inhibition diameter Staph (Gram + ve) (Staphylococcus aureus [5]) [mm] | Candida albicans (diameter of inhibition zone) (Candida albicans) [mm] | MIC (Haemophilus (Gram –ve) [6]) [µg/mL] | MIC (Staphylococcus aureus [7]) [µg/mL] | Humeral response of vaccinated groups which received each tested compound separately (SPF chicks) [log2] | Immune-boosting properties (in words) (SPF chicks) | CC50 [8]
Cc1ccc(C2=CC(=Cc3c(C)nn(-c4ccccc4)c3Cl)C(=O)O2)cc1 [Compound 3, 3-((5-Chloro-3-methyl-1-phenyl-1H-pyrazol-4-yl)methylene)-5-(p-tolyl)furan-2(3H)-one] | Moderate antioxidant activity | 156.33 ± 4.04 | 96.77 | remarked antiviral activity | 10^1 | 22 | 23 | 24 | 1 (≈ 2.65 µM) | 2 | 7.3 | special immune-boosting properties | 300 > µl/ egg
Cc1ccc(C2=CC(=Cc3c(C)nn(-c4ccccc4)c3Cl)C(=O)N2)cc1 [Compound 4, 3-((5-Chloro-3-methyl-1-phenyl-1H-pyrazol-4-yl)methylene)-5-(p-tolyl)-1,3-dihydro-2H-pyrrol-2-one] | – | 278.56 ± 4.61 | 83.3 | remarked antiviral activity | 10^1 | 22 | 25 | 25 | 6 (≈ 16 µM) | 5 | 7.5 | special immune-boosting properties | 500 > µl/ egg
Cc1ccc(C(=O)CC(=Cc2c(C)nn(-c3ccccc3)c2Cl)C(=O)NCc2ccccc2)cc1 [Compound 5, N-Benzyl-2-((5-chloro-3-methyl-1-phenyl-1H-pyrazol-4-yl)methylene)-4-oxo-4-(p-tolyl)butanamide] | – | 221.14 ± 4.63 | 96.77 | remarked antiviral activity | 10^1 | 23 | 24 | 22 | 3 (≈ 6.2 µM) | 3 | 7.4 | special immune-boosting properties | 300 > µl/ egg
Cc1ccc(C(=O)CC(=Cc2c(C)nn(-c3ccccc3)c2Cl)C(=O)NCC(C)C)cc1 [Compound 6, 2-((5-Chloro-3-methyl-1-phenyl-1H-pyrazol-4-yl)methylene)-N-isobutyl-4-oxo-4-(p-tolyl)butanamide] | – | 248.67 ± 4.11 | 83.3 | remarked antiviral activity | 10^1 | 25 | 22 | 20 | 5 (≈ 11.1 µM) | 4 | 7.4 | special immune-boosting properties | 500 > µl/ egg
Cc1ccc(C(=O)CC(=Cc2c(C)nn(-c3ccccc3)c2Cl)C(=O)NN)cc1 [Compound 8, 2-((5-Chloro-3-methyl-1-phenyl-1H-pyrazol-4-yl)methylene)-4-oxo-4-(p-tolyl)butanehydrazide] | Moderate antioxidant activity | 145.0 ± 1.73 | 55.5 | little antiviral activity | – | 4 | 8 | 8 | 12 (≈ 29.3 µM) | 13 | 6.6 | – | 500 > µl/ egg
Cc1ccc(-c2cc(Cc3c(C)nn(-c4ccccc4)c3Cl)c(=O)[nH]n2)cc1 [Compound 9, 4-((5-chloro-3-methyl-1-phenyl-1H-pyrazol-4-yl)methyl)-6-(p-tolyl)pyridazin-3(2H)-one] | highest potent levels of activity | 374.0 ± 2.08 | 50 | little antiviral activity | – | 1 | 2 | 2 | 20 (≈ 51.2 µM) | 19 | 6 | less immune-boosting properties | 400 > µl/ egg
Cc1ccc(C(=O)CC(=Cc2c(C)nn(-c3ccccc3)c2Cl)C(=O)NNc2ccccc2)cc1 [Compound 10, 2-((5-Chloro-3-methyl-1-phenyl-1H-pyrazol-4-yl)methylene)-4-oxo-N'-phenyl-4-(p-tolyl)butanehydrazide] | highest potent levels of activity | 336.0 ± 3.46 | 55.5 | little antiviral activity | – | 6 | 7 | 7 | 17 (≈ 35.1 µM) | 13 | 6.9 | – | 500 > µl/ egg
Cc1ccc(C(=O)CC(=Cc2c(C)nn(-c3ccccc3)c2Cl)C2=NCCN2)cc1 [Compound 11, 4-(5-Chloro-3-methyl-1-phenyl-1H-pyrazol-4-yl)-3-(4,5-dihydro-1H-imidazol-2-yl)-1-(p-tolyl)but-3-en-1-one] | – | 280.0 ± 2.0 | 83.3 | remarked antiviral activity | 10^1 | 22 | 25 | 24 | 2 (≈ 4.77 µM) | 5 | 7.1 | special immune-boosting properties | 500 > µl/ egg
CC(=O)N(C(C)=O)N1C(=O)C(=Cc2c(C)nn(-c3ccccc3)c2Cl)C=C1c1ccc(C)cc1 [Compound 13, N-Acetyl-N-(3-((5-chloro-3-methyl-1-phenyl-1H-pyrazol-4-yl)methylene)-2-oxo-5-(p-tolyl)-2,3-dihydro-1H-pyrrol-1-yl)acetamide] | Moderate antioxidant activity | 190.0 ± 1.67 | 71.42 | less antiviral activity | – | 12 | 14 | 14 | 10 (≈ 21.1 µM) | 9 | 6.9 | – | 500 > µl/ egg
Cc1ccc(C2=CC(=Cc3c(C)nn(-c4ccccc4)c3Cl)C(=O)N2NC(=O)c2ccccc2)cc1 [Compound 14, N-(3-((5-Chloro-3-methyl-1-phenyl-1H-pyrazol-4-yl)methylene)-2-oxo-5-(p-tolyl)-2,3-dihydro-1H-pyrrol-1-yl)benzamide] | – | 261.0 ± 2.48 | 55.5 | little antiviral activity | – | 8 | 7 | 7 | 16 (≈ 32.3 µM) | 16 | 7.2 | – | 500 > µl/ egg
